These results are taken from patent US20220274945A1, “SUBSTITUTED THIOPHENE CARBOXAMIDES AND DERIVATIVES THEREOF AS MICROBICIDES” (Bayer Aktiengesellschaft, priority 2019, published 2022).

The subject of data set [1] is Xanthomonas campestris pv. campestris. Briefly: In vivo preventive test on Xanthomonas campestris pv. campestris (black rot on cabbage). The following applies: 31 ppm, cabbage plants sprayed 72 hours before inoculation; evaluated 8 or 10 days after inoculation. How it is done:
The tested active ingredients were prepared by homogenization in a mixture of acetone/Dimethyl sulfoxide/Tween®, and then diluted with water to obtain the desired active material concentration.
The young plants of cabbage were treated by spraying the active ingredient prepared as described above.
Control plants were treated only with an aqueous solution of acetone/Dimethyl sulfoxide/Tween®.
After 72 hours, the plants were contaminated by spraying the leaves with an aqueous bacteria suspension of Xanthomonas campestris pv. campestris. The contaminated cabbage plants were incubated for 8 or 10 days at 27° C. at 95% relative humidity.
The test was evaluated 8 or 10 days after the inoculation. 0% means an efficacy which corresponds to that of the control plants while an efficacy of 100% means that no disease was observed.

In data set [2] the test system is salicylate responsive promoter sequence of the PR1 (pathogenesis-related protein I) gene (AT2G14610). Briefly: Induction of defense gene expression in Arabidopsis thaliana (PR1 promoter-GFP reporter plants). Type of data set: in vivo. The following applies: 300 ppm, sprayed; 3rd day after spraying; mock treated leaves set as 1.00. The procedure: Arabidopsis thaliana reporter plants containing the coding sequence of a green fluorescent protein (GFP) linked to the salicylate responsive promoter sequence of the PR1 (pathogenesis-related protein I) gene (AT2G14610) were grown for five days and then sprayed with compounds. On the 3rd day after spraying, plant fluorescence was assessed with a MacroFluo instrument from Leica Microsystems (Wetzlar, Germany). Fluorescences were quantified with the Meta-Morph Microscopy Automation & Image Analysis Software (Molecular Devices, Sunnyvale, Calif., United States).
Background fluorescence in mock treated leaves was set as 1.00.

Data set [3] in a line: Log P by HPLC on reversed phase columns (EEC directive 79/831 Annex V.A8). In kind it is physicochemical. As to conditions: reversed phase HPLC columns. The procedure: In the above tables, measurement of Log P values was performed according to EEC directive 79/831 Annex V.A8 by HPLC (High Performance Liquid Chromatography) on reversed phase columns with the following methods: [^a] […] If more than one Log P value is available within the same method, all the values are given and separated by “+”. Calibration was done with straight-chain alkan2-ones (with 3 to 16 carbon atoms) with known Log P values (measurement of Log P values using retention times with linear interpolation between successive alkanones). Lambda-max-values were determined using UV-spectra from 200 nm to 400 nm and the peak values of the chromatographic signals.

The subject of a further data set is Botrytis cinerea. The data set can be described thus: Botrytis cinerea in vitro cell test. Type of data set: cell-based. The following applies: 120 h, 20 ppm of active ingredient, liquid culture, 5 days incubation, read-out: efficacy (inhibition of fungal growth). The procedure: • Solvent: DMSO • Culture medium: 14.6 g anhydrous D-glucose (VWR), 7.1 g Mycological Peptone (Oxoid), 1.4 g granulated Yeast Extract (Merck), QSP Iliter • Inoculum: spore suspension
Fungicides were solubilized in DMSO and the solution used to prepare the required range of concentrations. The final concentration of DMSO used in the assay was ≤[…]1%.
A spore suspension of B. cinerea was prepared and diluted to the desired spore density.
Fungicides were evaluated for their ability to inhibit spore germination and mycelium growth in liquid culture assay. The compounds were added in the desired concentration to the culture medium with spores. After 5 days incubation, fungi-toxicity of compounds was determined by spectrometric measurement of mycelium growth. Inhibition of fungal growth was determined by comparing the absorbance values in wells containing the fungicides with the absorbance in control wells without fungicides.

In data set [4] the test system is Xanthomonas campestris pv. campestris. The data set can be described thus: Xanthomonas campestris pv. campestris in vitro cell test. Type of data set: cell-based. The following applies: 20 ppm of active ingredient, liquid culture, 24 h incubation, read-out: efficacy (inhibition of bacteria growth). How it is done: (§1) • Solvent: DMSO • Culture medium: LB broth medium (Luria Broth Miller) Sigma • Inoculum: bacteria suspension Compounds were solubilized in DMSO and the solution used to prepare the required range of concentrations. The final concentration of DMSO used in the assay was 10%. Inoculum was prepared from a pre-culture of bacteria grown in liquid medium and diluted to the desired optical density (OD). Compounds were evaluated for their ability to inhibit bacteria growth in liquid culture assay. The compounds were added in the desired concentrations to culture medium containing the bacteria suspension. After 24 h of incubation, the efficacy of compounds was determined by spectrometric measurement of bacteria growth. Inhibition was determined by comparing the absorbance values in wells containing the compounds with the absorbance in control wells without active ingredients.

Data set [5] relates to Pseudomonas syringae pv. tomato. Briefly: Pseudomonas syringae pv. tomato in vitro cell test. Type of data set: cell-based. As to conditions: 20 ppm of active ingredient, liquid culture, 24 h incubation, read-out: efficacy (inhibition of bacteria growth). How it is done:
as §1, with “suspension Compounds to be tested were solubilized” for “suspension Compounds were solubilized”, “assay was ≤1%. Inoculum was” for “assay was 10%. Inoculum was”, “wells without compounds.” for “wells without active ingredients.”

`O=C(NC1(C(=O)O)CC1)c1cc(Br)c(Br)s1` [CMP1]: in data set [1], the efficacy worked out at 10%.

`O=C(O)c1ccccc1O` [Salicylic acid] registered a relative fluorescence value in data set [2] of 2.70.

Regarding `CCOC(=O)C1(NC(=O)c2sc(Br)c(Br)c2F)CC1` [I.01, ethyl 1-{[(4,5-dibromo-3-fluoro-2-thienyl)carbonyl]amino}cyclopropanecarboxylate], the chromatographic logP in data set [3] (method [a]: LC-UV, acidic range, 0.1% formic acid in water and acetonitrile as eluent) worked out at 3.13; in data set [3] (value in the preparation example, method letter not given), 3.13. Also, the inhibition at 20 ppm (in the data set on Botrytis cinerea; in data set [4]; in data set [5]) was no more than 30% each time.

In the case of `O=C(NC1(C(=O)O)CC1)c1sc(Br)c(Br)c1Br` [I.14], the efficacy result in data set [1] is “at least 80%”.

As a reminder, the chromatographic logP is lipophilicity estimated from chromatographic retention. Broadly, the inhibition is the change of the read-out against control, counted positive when it falls.
